Experimental data taken from ChEMBL document CHEMBL3817755, “Design, synthesis and biological evaluation of indazolepyrimidine based derivatives as anticancer agents with anti-angiogenic and antiproliferative activities” (Medchemcomm, 2016).

Tests used:
Format in all cases: functional
T47D = assay: Growth inhibition of human T47D cells at 10 uM after 48 hrs by SRB assay; conditions: read-out: GI
MDA-MB-468 = assay: Growth inhibition of human MDA-MB-468 cells at 10 uM after 48 hrs by SRB assay; conditions: MDA-MB-468, 48 h, read-out: GI
[1] = Growth inhibition of human HCT15 cells at 10 uM after 48 hrs by SRB assay; conditions: HCT-15, 48 h, read-out: GI
[2] = Growth inhibition of human HCC2998 cells at 10 uM after 48 hrs by SRB assay; conditions: HCC 2998, 48 h, read-out: GI
[3] = Growth inhibition of human SW620 cells at 10 uM after 48 hrs by SRB assay; conditions: SW-620, 48 h, read-out: GI
M14 = assay: Growth inhibition of human M14 cells at 10 uM after 48 hrs by SRB assay; conditions: M14, 48 h, read-out: GI
SN12C = assay: Growth inhibition of human SN12C cells at 10 uM after 48 hrs by SRB assay; conditions: read-out: GI
CCRF-CEM = assay: Growth inhibition of human CCRF-CEM cells at 10 uM after 48 hrs by SRB assay; conditions: read-out: GI
[4] = Growth inhibition of human PC3 cells at 10 uM after 48 hrs by SRB assay; conditions: PC-3, 48 h, read-out: GI
[5] = Growth inhibition of human DU145 cells at 10 uM after 48 hrs by SRB assay; conditions: DU-145, 48 h, read-out: GI
NCI-H322M = assay: Growth inhibition of human NCI-H322M cells at 10 uM after 48 hrs by SRB assay; conditions: read-out: GI
NCI-H226 = assay: Growth inhibition of human NCI-H226 cells at 10 uM after 48 hrs by SRB assay; conditions: NCI-H226, 48 h, read-out: GI
[6] = Growth inhibition of human SKOV3 cells at 10 uM after 48 hrs by SRB assay; conditions: SK-OV-3, 48 h, read-out: GI
[7] = Growth inhibition of human OVCAR3 cells at 10 uM after 48 hrs by SRB assay; conditions: OVCAR-3, 48 h, read-out: GI
HT-29 = assay: Growth inhibition of human HT-29 cells at 10 uM after 48 hrs by SRB assay; conditions: HT-29, 48 h, read-out: GI
A549 = assay: Growth inhibition of human A549/ATCC cells at 10 uM after 48 hrs by SRB assay; conditions: A549, 48 h, read-out: GI
[8] = Growth inhibition of human IGROV1 cells at 10 uM after 48 hrs by SRB assay; conditions: IGROV-1, 48 h, read-out: GI
[9] = Growth inhibition of human RXF393 cells at 10 uM after 48 hrs by SRB assay; conditions: RXF 393, 48 h, read-out: GI
[10] = Growth inhibition of human COLO205 cells at 10 uM after 48 hrs by SRB assay; conditions: COLO 205, 48 h, read-out: GI
[11] = Growth inhibition of human SF539 cells at 10 uM after 48 hrs by SRB assay; conditions: SF-539, 48 h, read-out: GI
[12] = Growth inhibition of human HL-60(TB) cells at 10 uM after 48 hrs by SRB assay; conditions: HL-60, 48 h, read-out: GI
SK-MEL-28 = assay: Growth inhibition of human SK-MEL-28 cells at 10 uM after 48 hrs by SRB assay; conditions: SK-MEL-28, 48 h, read-out: GI
MDA-MB-231 = assay: Growth inhibition of human MDA-MB-231 cells at 10 uM after 48 hrs by SRB assay; conditions: MDA-MB-231, 48 h, read-out: GI
NCI-H522 = assay: Growth inhibition of human NCI-H522 cells at 10 uM after 48 hrs by SRB assay; conditions: NCI-H522, 48 h, read-out: GI
[13] = Growth inhibition of human NCI-ADR-RES cells at 10 uM after 48 hrs by SRB assay; conditions: read-out: GI
[14] = Growth inhibition of human OVCAR5 cells at 10 uM after 48 hrs by SRB assay; conditions: OVCAR-5, 48 h, read-out: GI
MDA-MB-435 = assay: Growth inhibition of human MDA-MB-435 cells at 10 uM after 48 hrs by SRB assay; conditions: MDA-MB-435, 48 h, read-out: GI
[15] = Growth inhibition of human HCT116 cells at 10 uM after 48 hrs by SRB assay; conditions: HCT-116, 48 h, read-out: GI
KM12 = assay: Growth inhibition of human KM12 cells at 10 uM after 48 hrs by SRB assay; conditions: KM12, 48 h, read-out: GI
[16] = Growth inhibition of human OVCAR8 cells at 10 uM after 48 hrs by SRB assay; conditions: OVCAR-8, 48 h, read-out: GI
SR = assay: Growth inhibition of human SR cells at 10 uM after 48 hrs by SRB assay; conditions: read-out: GI
[17] = Growth inhibition of human RPMI8226 cells at 10 uM after 48 hrs by SRB assay; conditions: RPMI-8226, 48 h, read-out: GI
[18] = Growth inhibition of human MOLT4 cells at 10 uM after 48 hrs by SRB assay; conditions: MOLT-4, 48 h, read-out: GI
[19] = Growth inhibition of human SNB75 cells at 10 uM after 48 hrs by SRB assay; conditions: SNB-75, 48 h, read-out: GI
[20] = Growth inhibition of human OVCAR4 cells at 10 uM after 48 hrs by SRB assay; conditions: OVCAR-4, 48 h, read-out: GI
[21] = Growth inhibition of human Caki1 cells at 10 uM after 48 hrs by SRB assay; conditions: CAKI-1, 48 h, read-out: GI
EKVX = assay: Growth inhibition of human EKVX cells at 10 uM after 48 hrs by SRB assay; conditions: read-out: GI
NCI-H460 = assay: Growth inhibition of human NCI-H460 cells at 10 uM after 48 hrs by SRB assay; conditions: NCI-H460, 48 h, read-out: GI
[22] = Growth inhibition of human TK10 cells at 10 uM after 48 hrs by SRB assay; conditions: TK-10, 48 h, read-out: GI
[23] = Growth inhibition of human SF268 cells at 10 uM after 48 hrs by SRB assay; conditions: SF-268, 48 h, read-out: GI
[24] = Growth inhibition of human HOP62 cells at 10 uM after 48 hrs by SRB assay; conditions: HOP-62, 48 h, read-out: GI
MCF7 = assay: Growth inhibition of human MCF7 cells at 10 uM after 48 hrs by SRB assay; conditions: MCF7, 48 h, read-out: GI

## Clc1ccc(Nc2nccc(Nc3ccc4[nH]ncc4c3)n2)cc1
T47D
  inhibition of growth at 10 µM: 70%
MDA-MB-468
  inhibition of growth at 10 µM: 66%
[1]
  inhibition of growth at 10 µM: 60%
[2]
  inhibition of growth at 10 µM: 6%
[3]
  inhibition of growth at 10 µM: 67%
M14
  inhibition of growth at 10 µM: 56%
SN12C
  inhibition of growth at 10 µM: 48%
CCRF-CEM
  inhibition of growth at 10 µM: 95%
[4]
  inhibition of growth at 10 µM: 75%
[5]
  inhibition of growth at 10 µM: 50%
NCI-H322M
  inhibition of growth at 10 µM: 25%
NCI-H226
  inhibition of growth at 10 µM: 72%
[6]
  inhibition of growth at 10 µM: 12%
[7]
  inhibition of growth at 10 µM: 48%
HT-29
  inhibition of growth at 10 µM: 83%
A549
  inhibition of growth at 10 µM: 50%
[8]
  inhibition of growth at 10 µM: 53%
[9]
  inhibition of growth at 10 µM: 65%
[10]
  inhibition of growth at 10 µM: 58%
[11]
  inhibition of growth at 10 µM: 24%
[12]
  inhibition of growth at 10 µM: 48%
SK-MEL-28
  inhibition of growth at 10 µM: 20%
MDA-MB-231
  inhibition of growth at 10 µM: 31%
NCI-H522
  inhibition of growth at 10 µM: 79%
[13]
  inhibition of growth at 10 µM: 61%
[14]
  inhibition of growth at 10 µM: 35%
MDA-MB-435
  inhibition of growth at 10 µM: 44%
[15]
  inhibition of growth at 10 µM: 61%
KM12
  inhibition of growth at 10 µM: 91%
[16]
  inhibition of growth at 10 µM: 78%
SR
  inhibition of growth at 10 µM: 97%
[17]
  inhibition of growth at 10 µM: 82%
[18]
  inhibition of growth at 10 µM: 77%
[19]
  inhibition of growth at 10 µM: 32%
[20]
  inhibition of growth at 10 µM: 51%
[21]
  inhibition of growth at 10 µM: 48%
EKVX
  inhibition of growth at 10 µM: 33%
NCI-H460
  inhibition of growth at 10 µM: 59%
[22]
  inhibition of growth at 10 µM: 38%
[23]
  inhibition of growth at 10 µM: 40%
[24]
  inhibition of growth at 10 µM: 34%
MCF7
  inhibition of growth at 10 µM: 75%

## NS(=O)(=O)c1ccc(Nc2nccc(Nc3ccc4[nH]ncc4c3)n2)cc1
T47D
  inhibition of growth at 10 µM: 50%
MDA-MB-468
  inhibition of growth at 10 µM: 36%
[1]
  inhibition of growth at 10 µM: -6%
[2]
  inhibition of growth at 10 µM: -18%
[3]
  inhibition of growth at 10 µM: -11%
M14
  inhibition of growth at 10 µM: 5%
SN12C
  inhibition of growth at 10 µM: 10%
CCRF-CEM
  inhibition of growth at 10 µM: 28%
[4]
  inhibition of growth at 10 µM: 25%
[5]
  inhibition of growth at 10 µM: -6%
NCI-H322M
  inhibition of growth at 10 µM: -5%
NCI-H226
  inhibition of growth at 10 µM: 28%
[6]
  inhibition of growth at 10 µM: -4%
[7]
  inhibition of growth at 10 µM: -10%
HT-29
  inhibition of growth at 10 µM: 9%
A549
  inhibition of growth at 10 µM: 11%
[8]
  inhibition of growth at 10 µM: -3%
[9]
  inhibition of growth at 10 µM: 11%
[10]
  inhibition of growth at 10 µM: -4%
[11]
  inhibition of growth at 10 µM: -3%
[12]
  inhibition of growth at 10 µM: 2%
SK-MEL-28
  inhibition of growth at 10 µM: -18%
MDA-MB-231
  inhibition of growth at 10 µM: 14%
NCI-H522
  inhibition of growth at 10 µM: 57%
[13]
  inhibition of growth at 10 µM: -6%
[14]
  inhibition of growth at 10 µM: -10%
MDA-MB-435
  inhibition of growth at 10 µM: 1%
[15]
  inhibition of growth at 10 µM: 5%
KM12
  inhibition of growth at 10 µM: 22%
[16]
  inhibition of growth at 10 µM: 18%
SR
  inhibition of growth at 10 µM: 34%
[17]
  inhibition of growth at 10 µM: 16%
[18]
  inhibition of growth at 10 µM: 12%
[19]
  inhibition of growth at 10 µM: 22%
[20]
  inhibition of growth at 10 µM: -12%
[21]
  inhibition of growth at 10 µM: -4%
EKVX
  inhibition of growth at 10 µM: -1%
NCI-H460
  inhibition of growth at 10 µM: 1%
[22]
  inhibition of growth at 10 µM: -16%
[23]
  inhibition of growth at 10 µM: 12%
[24]
  inhibition of growth at 10 µM: 17%
MCF7
  inhibition of growth at 10 µM: 40%
